Like-named read-outs stand apart in the source and are kept apart here.

The target of assay [1] is T1, Aedes aegypti AChE (AeAChE) (Aedes aegypti, UniProt Q6A2E2).
T1 construct: Homogenate enzymes were prepared from groups of ten non-blood fed adult female mosquitoes; from tissue; host or cells: whole adult female mosquitoes, supernatant of homogenate
Kind of assay: AChE inhibition, Ellman assay. The assay is classed as biochemical. From the text:
(§1) In vitro biochemical assays utilized five acetylcholinesterase (AChE) enzymes. Recombinant human AChE (hAChE) was purchased from a commercial source (lyophilized powder, Sigma C1682, St. Louis, MO, USA). Homogenates to prepare Anopheles gambiae AChE (AgAChE) were obtained from the wild type G3 strain and the resistant AKRON strain (BEI Resources; http://www.beiresources.org/). AKRON mosquitoes (from Benin and donated by M. Akogbeto) have both knockdown resistance (kdr) to pyrethroids (L1014F sodium channel mutation) and the G119S AChE mutation (ace-1R), which confers resistance to carbamates, [15]. Both strains were cultured in the Emerging Pathogens Institute, University of Florida, Gainesville, FL, USA from eggs provided by the Center for Disease Control, Atlanta, GA, USA. Homogenates were also used to prepare Aedes aegypti AChE (AeAChE) from mosquitoes provided by the CMAVE, USDA-ARS, Gainesville, FL, USA; Musca domestica AChE (MdAChE) from flies cultured in the Department of Entomology and Nematology, Medical Entomology Laboratory, University of Florida, Gainesville, FL, USA); and Drosophila melanogaster AChE (DmAChE) from flies (Oregon-R strain) cultured in the Emerging Pathogens Institute, University of Florida, Gainesville, FL, USA. Homogenate enzymes were prepared from groups of ten non-blood fed adult female mosquitoes, five whole bodied Drosophila, or three Musca heads homogenized in 1 mL of ice-cold sodium phosphate buffer (0.1 M sodium phosphate, pH 7.8) with an electric motor driven glass tissue homogenizer. The homogenate was centrifuged at 5000×g using a Sorvall Fresco refrigerated centrifuge at 4 °C for 5 minutes. The supernatant was used as the enzyme source, and all enzyme preparations contained 0.3% (v/v) triton X-100 and 1 mg/ml BSA. Prior to use, the recombinant human enzyme was diluted 500-fold into sodium phosphate buffer containing triton X-100 and 1 mg/ml BSA.
(§2) Inhibition of AChE was determined using the Ellman assay and was based on the method outlined in Carlier et al.. Briefly, enzyme solution (10 µL) was added to each well of a 96-well micro assay plate, along with 20 µL of inhibitor in DMSO/saline suspension, and 150 µL of sodium phosphate buffer. Final concentration of DMSO was 0.1% in all incubations. The plate was incubated at 25 °C for ten minutes. Ellman assay reagents, acetylthiocholine iodide (0.4 mM, final concentration) and 5,5′-dithiobis-(2-nitro)benzoic acid (0.3 mM, final concentration), were prepared fresh and 20 µL was added to the enzyme to initiate the reaction.

The target in assay [2] is T2, Anopheles gambiae AChE (AgAChE), wild type G3 strain (Anopheles gambiae, UniProt Q869C3).
T2 construct: Homogenate enzymes were prepared from groups of ten non-blood fed adult female mosquitoes; from tissue; host or cells: whole adult female mosquitoes, G3 strain, supernatant of homogenate
Kind of assay: AChE inhibition, Ellman assay. The assay is classed as biochemical.
From the text: as §1, §2

The target of assay [3] is T3, Drosophila melanogaster AChE (DmAChE) (Drosophila melanogaster, UniProt P07140).
T3 construct: five whole bodied Drosophila, or three Musca heads homogenized; from tissue; host or cells: whole Drosophila (Oregon-R), supernatant of homogenate
Kind of assay: AChE inhibition, Ellman assay. In kind it is biochemical.
From the text: as §1, §2

Assay [4] concerns the target T4, AKRON AgAChE (G119S AChE mutation) (Anopheles gambiae, UniProt Q869C3, G280S).
T4 construct: Homogenate enzymes were prepared from groups of ten non-blood fed adult female mosquitoes; from tissue; host or cells: whole adult female mosquitoes, AKRON strain, supernatant of homogenate
Kind of assay: AChE inhibition, Ellman assay. The assay is classed as biochemical.
From the text: as §1
as §2, with “reaction. Changes in absorbance were recorded by a DYNEX Triad spectrophotometer (DYNEX Technologies, Chantilly, VA, USA) at 405 nm. Enzyme concentrations used were within the linear range, therefore eliminating the need for protein quantification.” for “reaction.”

In assay [5] the target is Musca domestica AChE (MdAChE) (Musca domestica, UniProt Q7YWJ9). Nature of the assay: AChE inhibition, Ellman assay. In kind it is biochemical.
From the text: as §1
as §2, with “reaction. Changes in absorbance were recorded by a DYNEX Triad spectrophotometer (DYNEX Technologies, Chantilly, VA, USA) at 405 nm. Enzyme concentrations used were within the linear range, therefore eliminating the need for protein quantification.” for “reaction.”

In assay [6] the target is T5, Recombinant human AChE (hAChE) (Homo sapiens, UniProt P22303).
T5 construct: purchased Sigma C1682
Nature of the assay: AChE inhibition, Ellman assay. In kind it is biochemical. The conditions noted are these: mean, n = 3; read-out: IC50 (95% CI).
From the text: as §1
as §2, with “reaction. Changes in absorbance were recorded by a DYNEX Triad spectrophotometer (DYNEX Technologies, Chantilly, VA, USA) at 405 nm. Enzyme concentrations used were within the linear range, therefore eliminating the need for protein quantification.” for “reaction.”

In assay [7] the test system is neuromuscular junction of third instar Musca domestica larvae. Kind of assay: Neuromuscular junction recordings of evoked EPSP in housefly larvae. Conditions: for effect on evoked EPSP in words: toluene at 5 mM. Here is the method: Neuromuscular recordings of the evoked excitatory postsynaptic potential (EPSP) were performed on third instar housefly larvae, essentially as described previously. In short, the maggot was immobilized with pins, and the nervous and musculature systems were exposed. The preparation was then bathed in saline containing: 140 mM NaCl, 0.75 mM CaCl2, 5 mM KCl, 4 mM MgCl2, 5 mM NaHCO3, and 5 mM HEPES (pH = 7.25). The nerves were severed from the base of the CNS, which was removed, and a lateral nerve trunk innervating the longitudinal muscles was drawn into a suction electrode filled with saline. Stimuli were applied at 1 volt and of 0.2 sec duration to elicit a contraction from the longitudinal muscles. The stimulated muscle was then impaled with a recording glass capillary microelectrode filled with 1 M KCl to record effects on the evoked EPSP and membrane potential. Signals from all recordings were amplified and digitized with the use of the MacLab. Chemicals were applied to the preparation directly by hand pipetting 150 µL of solution into the bath volume of 150 µL.

[8] abbreviates: mean, n = 3, read-out: IC50 (95% CI).

Regarding `CCN(CC)C(=O)c1cccc(C)c1` [DEET, N, N-diethyl-meta-toluamide], the “sensitivity of enzyme in words” value in assay [1] (concentrations up to 10 mM) and in assay [2] (concentrations up to 10 mM) was “completely insensitive” throughout. The half-maximal inhibitory concentration (IC50) is above 10000 µM in assay [1] (setting [8]); above 10000 µM in assay [2] (setting [8]); 10000 µM in assay [3] (setting [8]); above 10000 µM in assay [4]; 6000 µM in assay [5] (mean, n = 3; read-out: IC50 (95% CI)); 12000 µM in assay [6]. The “time to complete block” value in assay [7] (10 mM added to the bath) is reported as “approximately 120 seconds”. Moreover, the “change in muscle membrane resting potential” value in assay [7] (any concentration) was “Little or no change”. Further, the “concentration at which half of the preparations were blocked” value in assay [7] (evoked EPSP, all or none response) was “ca. 7 mM”. Besides, the “effect on evoked EPSP in words” value in assay [7] was “complete and rapid block”.
On to `CNC(=O)Oc1ccccc1OC(C)C` [propoxur], for which the IC50 is 0.37 µM in assay [1]; 0.447 µM in assay [2]; 0.084 µM in assay [3]; above 100 µM in assay [4]; 0.13 µM in assay [5] (read-out: IC50 (95% CI); mean, n = 3); 1.44 µM in assay [6]. In addition, the “fold more potent than the IC50 value of DEET to MdAChE” value in assay [5] (mean IC50) was 40,000 fold. The “effect on evoked EPSP in words” value in assay [7] is on record as “no effect”.

The values above are taken from paper PMC4125160, “Neurotoxicity and Mode of Action of N, N-Diethyl-Meta-Toluamide (DEET)” (PLoS ONE, 2014).
